Where a name gives a salt, the structure may show the parent alone.
Target: T1, calpain-I isolated from human erythrocytes (Homo sapiens, UniProt P07384)
T1 construct: calpain-I—isolated from human erythrocytes (Calbiochem #208713); purchased Calbiochem 208713; host or cells: human erythrocytes (native tissue isolate)
T1 sequence (P07384 1-714): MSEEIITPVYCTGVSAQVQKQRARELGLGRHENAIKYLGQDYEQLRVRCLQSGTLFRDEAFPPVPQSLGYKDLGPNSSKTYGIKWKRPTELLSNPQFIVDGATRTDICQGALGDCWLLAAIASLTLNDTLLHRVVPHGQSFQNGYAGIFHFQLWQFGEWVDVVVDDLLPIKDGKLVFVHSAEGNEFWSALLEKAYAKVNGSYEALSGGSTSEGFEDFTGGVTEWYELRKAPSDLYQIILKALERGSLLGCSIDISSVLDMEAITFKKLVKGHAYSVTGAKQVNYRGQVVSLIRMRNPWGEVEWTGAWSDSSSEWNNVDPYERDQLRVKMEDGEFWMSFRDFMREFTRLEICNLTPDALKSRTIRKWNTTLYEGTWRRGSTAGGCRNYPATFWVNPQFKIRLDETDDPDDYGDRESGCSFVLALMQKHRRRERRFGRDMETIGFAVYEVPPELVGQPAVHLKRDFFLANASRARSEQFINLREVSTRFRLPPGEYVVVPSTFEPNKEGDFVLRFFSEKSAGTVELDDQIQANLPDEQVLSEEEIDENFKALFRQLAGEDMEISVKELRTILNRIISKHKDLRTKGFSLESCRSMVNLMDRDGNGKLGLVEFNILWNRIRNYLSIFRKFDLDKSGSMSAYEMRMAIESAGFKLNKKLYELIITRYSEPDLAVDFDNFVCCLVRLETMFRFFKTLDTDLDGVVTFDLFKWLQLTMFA
T1 sequence (P04632 1-268 partner): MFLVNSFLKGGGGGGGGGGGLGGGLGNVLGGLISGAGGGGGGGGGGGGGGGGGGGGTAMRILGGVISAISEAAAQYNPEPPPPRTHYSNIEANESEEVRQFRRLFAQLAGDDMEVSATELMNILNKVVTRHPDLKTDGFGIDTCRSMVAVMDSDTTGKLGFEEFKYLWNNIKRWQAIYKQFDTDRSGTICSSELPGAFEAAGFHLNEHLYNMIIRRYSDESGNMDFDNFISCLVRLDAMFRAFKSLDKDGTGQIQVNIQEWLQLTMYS
Assay: Calpain I kinetic fluorescence enzyme inhibition assay
Format: biochemical
Details: apparent Ki from IC50 by Cheng-Prussoff
Procedure: Testing for blockade of the corresponding enzymic activities was carried out by means of kinetic fluorescence assays (excitation 390 nm, emission 460 nm).
Apparent Ki values were calculated from the experimentally determined IC50 values by the Cheng-Prussoff relation assuming a reversible competitive enzyme inhibition.
20 nM calpain-I—isolated from human erythrocytes (Calbiochem #208713), 100 μM Suc-Leu-Tyr-AMC (Bachem #I-1355) as substrate in buffer with 62 mM imidazole, 0.3 mM CaCl2, 0.10% CHAPS, 0.05% BSA, 1 mM DTT at pH 7.3 and room temperature.

Structure (SMILES)	Ki
CN(Cc1ccccc1)Cc1ccn(-c2ncccc2C(=O)NC(Cc2ccccc2)C(=O)C(N)=O)n1 (centres unmarked) [Example 21, N-(4-Amino-3,4-dioxo-1-phenylbutan-2-yl)-2-(3-((benzyl(methyl)amino)methyl)-1H-pyrazol-1-yl)nicotinamide trifluoroacetate]	< 250 nM
CN(Cc1ccn(-c2ncccc2C(=O)NC(Cc2ccccc2)C(=O)C(N)=O)n1)CC1CCC(C(F)(F)F)CC1 (centres unmarked) [Example 25, N-(4-Amino-3,4-dioxo-1-phenylbutan-2-yl)-2-(3-((methyl((4-(trifluoromethyl)cyclohexyl)methyl)amino)methyl)-1H-pyrazol-1-yl)nicotinamide trifluoroacetate]	< 250 nM
CC(c1ccn(-c2ncccc2C(=O)NC(Cc2ccccc2)C(=O)C(N)=O)n1)N1Cc2ccccc2C1 (centres unmarked) [Example 35, N-(4-Amino-3,4-dioxo-1-phenylbutan-2-yl)-2-(3-(1-(isoindolin-2-yl)ethyl)-1H-pyrazol-1-yl)nicotinamide trifluoroacetate]	< 250 nM
CCCCC(NC(=O)c1cccnc1-n1ccc(CN2CCCCC2)n1)C(=O)C(N)=O (centres unmarked) [Example 37, N-(1-Amino-1,2-dioxoheptan-3-yl)-2-(3-(piperidin-1-ylmethyl)-1H-pyrazol-1-yl)nicotinamide]	< 250 nM
CCCCC(NC(=O)c1cccnc1-n1ccc(CN2CCC(F)(F)CC2)n1)C(=O)C(N)=O (centres unmarked) [Example 38, N-(1-Amino-1,2-dioxoheptan-3-yl)-2-(3-((4,4-difluoropiperidin-1-yl)methyl)-1H-pyrazol-1-yl)nicotinamide]	< 250 nM
CCCCC(NC(=O)c1cccnc1-n1ccc(CN2Cc3ccccc3C2)n1)C(=O)C(N)=O (centres unmarked) [Example 39, N-(1-Amino-1,2-dioxoheptan-3-yl)-2-(3-(isoindolin-2-ylmethyl)-1H-pyrazol-1-yl)nicotinamide]	< 250 nM
NC(=O)C(=O)C(Cc1ccccc1)NC(=O)c1cccnc1-n1cc2c(n1)CCN(Cc1ccccc1)C2 (centres unmarked) [Example 40, N-(4-Amino-3,4-dioxo-1-phenylbutan-2-yl)-2-(5-benzyl-4,5,6,7-tetrahydro-2H-pyrazolo[4,3-c]pyridin-2-yl)nicotinamide]	< 250 nM
NC(=O)C(=O)C(Cc1ccccc1)NC(=O)c1cccnc1-n1cc2c(n1)CCN(CC1CC1)C2 (centres unmarked) [Example 41, N-(4-Amino-3,4-dioxo-1-phenylbutan-2-yl)-2-(5-(cyclopropylmethyl)-4,5,6,7-tetrahydro-2H-pyrazolo[4,3-c]pyridin-2-yl)nicotinamide]	< 250 nM
NC(=O)C(=O)C(Cc1ccccc1)NC(=O)c1cccnc1-n1cc2c(n1)CCNC2 (centres unmarked) [Example 42, N-(4-Amino-3,4-dioxo-1-phenylbutan-2-yl)-2-(4,5,6,7-tetrahydro-2H-pyrazolo[4,3-c]pyridin-2-yl)nicotinamide hydrochloride]	< 250 nM
CC(C)(C)OC(=O)N1Cc2cn(-c3ncccc3C(=O)NC(Cc3ccccc3)C(=O)C(N)=O)nc2C1 (centres unmarked) [Example 43, tert-Butyl 2-(3-(4-amino-3,4-dioxo-1-phenylbutan-2-ylcarbamoyl)pyridin-2-yl)-4,6-dihydropyrrolo[3,4-c]pyrazole-5(2H)-carboxylate]	< 250 nM
NC(=O)C(=O)C(Cc1ccccc1)NC(=O)c1cccnc1-n1cc2c(n1)CNC2 (centres unmarked) [Example 44, N-(4-Amino-3,4-dioxo-1-phenyl-2-butanyl)-2-(5,6-dihydropyrrolo[3,4-c]pyrazol-2(4H)-yl)nicotinamide hydrochloride]	< 250 nM
CC(C)(C)OC(=O)N1CCc2cn(-c3ncccc3C(=O)NC(Cc3ccccc3)C(=O)C(N)=O)nc2C1 (centres unmarked) [Example 45, tert-Butyl 2-(3-(4-amino-3,4-dioxo-1-phenylbutan-2-ylcarbamoyl)pyridin-2-yl)-2,4,5,7-tetrahydro-6H-pyrazolo[3,4-c]pyridine-6-carboxylate]	< 250 nM
NC(=O)C(=O)C(Cc1ccccc1)NC(=O)c1cccnc1-n1cc2c(n1)CNCC2 (centres unmarked) [Example 46, N-(4-Amino-3,4-dioxo-1-phenyl-2-butanyl)-2-(4,5,6,7-tetrahydro-pyrazolo[3,4-c]pyridin-2-yl)nicotinamide hydrochloride]	< 250 nM

The remaining lines, values ahead:

Ki	Structure (SMILES)
< 250 nM	NC(=O)C(=O)C(Cc1ccccc1)NC(=O)c1cccnc1-n1ccc(CN2CCc3ccccc3C2)n1 (centres unmarked) [Example 22, N-(4-Amino-3,4-dioxo-1-phenylbutan-2-yl)-2-(3-((3,4-dihydroisoquinolin-2(1H)-yl)methyl)-1H-pyrazol-1-yl)nicotinamide]
< 250 nM	CC(C)(C)C1CCN(Cc2ccn(-c3ncccc3C(=O)NC(Cc3ccccc3)C(=O)C(N)=O)n2)CC1 (centres unmarked) [Example 23, N-(4-Amino-3,4-dioxo-1-phenylbutan-2-yl)-2-(3-((4-tert-butylpiperidin-1-yl)methyl)-1H-pyrazol-1-yl)nicotinamide]
< 250 nM	CC1CCN(Cc2ccn(-c3ncccc3C(=O)NC(Cc3ccccc3)C(=O)C(N)=O)n2)CC1 (centres unmarked) [Example 24, N-(4-Amino-3,4-dioxo-1-phenylbutan-2-yl)-2-(3-((4-methylpiperidin-1-yl)methyl)-1H-pyrazol-1-yl)nicotinamide trifluoroacetate]
< 250 nM	CN(Cc1ccn(-c2ncccc2C(=O)NC(Cc2ccccc2)C(=O)C(N)=O)n1)C1CC1 (centres unmarked) [Example 26, N-(4-Amino-3,4-dioxo-1-phenylbutan-2-yl)-2-(3-((cyclopropyl(methyl)amino)methyl)-1H-pyrazol-1-yl)nicotinamide trifluoroacetate]
< 250 nM	NC(=O)C(=O)C(Cc1ccccc1)NC(=O)c1cccnc1-n1ccc(CN2CC3C[C@@H](c4ccc(F)cc4)C3C2)n1 (stereo partly drawn) [Example 27, N-(4-Amino-3,4-dioxo-1-phenylbutan-2-yl)-2-(3-(((6R)-6-(4-fluorophenyl)-3-azabicyclo[3.2.0]heptan-3-yl)methyl)-1H-pyrazol-1-yl)nicotinamide trifluoroacetate]
< 250 nM	NC(=O)C(=O)C(Cc1ccccc1)NC(=O)c1cccnc1-n1ccc(CNc2ccccc2)n1 (centres unmarked) [Example 28, N-(4-Amino-3,4-dioxo-1-phenylbutan-2-yl)-2-(3-((phenylamino)methyl)-1H-pyrazol-1-yl)nicotinamide]
< 250 nM	NC(=O)C(=O)C(Cc1ccccc1)NC(=O)c1cccnc1-n1ccc(CN2CCC(c3ccccc3)C2)n1 (centres unmarked) [Example 29, N-(4-Amino-3,4-dioxo-1-phenylbutan-2-yl)-2-(3-((3-phenylpyrrolidin-1-yl)methyl)-1H-pyrazol-1-yl)nicotinamide]
< 250 nM	NC(=O)C(=O)C(Cc1ccccc1)NC(=O)c1cccnc1-n1ccc(CN2Cc3ccc(C(F)(F)F)cc3C2)n1 (centres unmarked) [Example 30, N-(4-Amino-3,4-dioxo-1-phenylbutan-2-yl)-2-(3-((5-(trifluoromethyl)isoindolin-2-yl)methyl)-1H-pyrazol-1-yl)nicotinamide trifluoroacetate]
< 250 nM	NC(=O)C(=O)C(Cc1ccccc1)NC(=O)c1cccnc1-n1ccc(CN2Cc3ccc(F)cc3C2)n1 (centres unmarked) [Example 31, N-(4-Amino-3,4-dioxo-1-phenylbutan-2-yl)-2-(3-((5-fluoroisoindolin-2-yl)methyl)-1H-pyrazol-1-yl)nicotinamide trifluoroacetate]
< 250 nM	NC(=O)C(=O)C(Cc1ccccc1)NC(=O)c1cccnc1-n1ccc(CN2CCN(c3ccccc3)CC2)n1 (centres unmarked) [Example 32, N-(4-Amino-3,4-dioxo-1-phenylbutan-2-yl)-2-(3-((4-phenylpiperazin-1-yl)methyl)-1H-pyrazol-1-yl)nicotinamide trifluoroacetate]
< 250 nM	NC(=O)C(=O)C(Cc1ccccc1)NC(=O)c1cccnc1-n1ccc(CN2Cc3cccc(F)c3C2)n1 (centres unmarked) [Example 33, N-(4-Amino-3,4-dioxo-1-phenylbutan-2-yl)-2-(3-((4-fluoroisoindolin-2-yl)methyl)-1H-pyrazol-1-yl)nicotinamide trifluoroacetate]
< 250 nM	NC(=O)C(=O)C(Cc1ccccc1)NC(=O)c1cccnc1-n1ccc(CN2CCS(=O)(=O)CC2)n1 (centres unmarked) [Example 34, N-(4-Amino-3,4-dioxo-1-phenyl-2-butanyl)-2-{3-[(1,1-dioxido-4-thiomorpholinyl)methyl]-1H-pyrazol-1-yl}nicotinamide trifluoroacetate]
< 250 nM	NC(=O)C(=O)C(Cc1ccccc1)NC(=O)c1cccnc1-n1ccc(CN2Cc3ccccc3C2=O)n1 (centres unmarked) [Example 36, N-(4-Amino-3,4-dioxo-1-phenylbutan-2-yl)-2-(3-((1-oxoisoindolin-2-yl)methyl)-1H-pyrazol-1-yl)nicotinamide]

Source: patent US9150545B2, “Carboxamide compounds and their use as calpain inhibitors V” (ABBVIE DEUTSCHLAND GMBH & CO. KG, priority 2012, dated 2015)
